Results taken from patent US20230112845A1, “COMPOSITIONS OF BERBERINE URSODE[…] METHODS THEREOF FOR TREATING FATTY LIVER DISEASE, DIABETES AND HYPERLIPIDEMIA” (SHENZHEN HIGHTIDE BIOPHARMACEUTICAL LTD., priority 2020, published 2023).

How the values were obtained:
[1] = test system: subjects with a history of hypercholesterolemia; experiment: Phase 1b randomized placebo-controlled dose-ranging study: serum lipids, lipoproteins, HbA1c, ALT; assay type: in vivo, human; design: TG (serum level) / TC (serum level) / Non-HDL-c (serum level) / HDL-c (serum level): unit not given here; LDL-c (serum level): unit: mmol/L
Procedure: (§1) A double-blind, randomized, placebo-controlled, dose ranging study was carried out that compared three doses of berberine ursodeoxycholate (BUDCA, a.k.a. HTD1801) to placebo in a cohort of subjects with a history of hypercholesterolemia and serum LDL-c levels above 2.59 mmol/L (>99.9 mg/dL). BUDCA was administered in two divided doses each day for 28 days. The primary endpoints of the study were safety and tolerability of this new compound, as well as its effect in lowering serum lipid and lipoprotein concentrations.
Adult subjects were recruited and enrolled into this double-blind, randomized placebo-controlled dose ranging study at one of three research units in Australia between April and December of 2018. The key entry criteria were hypercholesterolemia, with serum LDL-c >2.59 mmol/L (>99.9 mg/dL) and overweight or obesity (BMI between 25 and 40 kg/m^2). […] Subjects were asked to discontinue the use of lipid-lowering medications at least 28 days prior to their first dose of BUDCA and for the duration of the study.
Subjects underwent an initial assessment and were then randomized to receive ascending doses of BUDCA in three sequential dosing groups: Group I received 500 mg/day of BUDCA or matching placebo in a ratio of 3:1. Group II received 1,000 mg/day of BUDCA or placebo, 3:1 and Group III received 2,000 mg/day BUDCA or placebo, 3:1. Study medication or placebo was given in two equal doses daily for 28 days. The investigational product BUDCA was administered in the form of film-coated tablets, each tablet containing 250 mg of BUDCA. The placebo was identical in appearance to the active agent. Subjects were instructed to take their tablets after breakfast and after dinner respectively with a glass of water.
The groups were enrolled sequentially, but follow-up overlapped (the next cohort could begin during the follow-up period of the prior cohort) (FIG. 1). The decision to move to the next dose level was based upon tolerability and safety findings, as assessed by a Safety Monitoring Committee. Individual subjects were admitted overnight for their first and last doses and so as to draw blood samples for pharmacokinetic studies; in between, they were seen every few days. Subjects were asked to arrive in a fasting state (typically overnight). After having vital signs measured and baseline laboratory tests taken, the subject was given a morning meal and then observed while taking their first dose of BUDCA with a glass of water. They stayed overnight to allow sampling for PK studies which were drawn at the following time points −18 hours, −12, −6, 0 time (pre-dose), +0.25 (post-dose), +0.5, +1, +2, +3, +4, +8, +12, +24 hours. Blood samples for PK studies were collected in dipotassium ethylene diamine tetra-acetic acid (K2EDTA) as the anticoagulant and the assays were done on plasma.
Blood samples for serum biochemistry (including lipid levels) and blood counts were drawn with subjects in a fasting state, at baseline and every 14 days through the study. Samples were shipped in a refrigerated state to laboratory where testing was done using routine clinical methodology, as follows: HbA1c was measured by ion-exchange HPLC (Bio-Rad D-100). For samples received by the laboratory prior to Sep. 2, 2018, the following analytes were measured on the Roche Diagnostics Modular P100 platform (ALT by photometric assay, TC by Trinder peroxidase assay, LDL-c by photometric assay, HDL-c by homogenous enzymatic colorimetric assay and TG by photometric assay). For samples received by the laboratory after Sep. 2, 2018, the following analytes were measured on the Beckman Coulter AU 5800 platform (ALT by photometric assay, TC by cholesterol-oxidase/peroxidase assay, LDL-c by homogenous enzymatic colorimetric assay, HDL-c by immune inhibition and cholesterol oxidase assay and TG by an enzymatic method using opiase/GK/GPO-PAP-4 amino phenazone). […]

[2] = test system: subjects with a history of hypercholesterolemia; experiment: Phase 1b study: safety and tolerability; assay type: in vivo, human; conditions: 28 days
Procedure: as §1
Subjects underwent an initial assessment and were then randomized to receive ascending doses of BUDCA in three sequential dosing groups: Group I received 500 mg/day of BUDCA or matching placebo in a ratio of 3:1. Group II received 1,000 mg/day of BUDCA or placebo, 3:1 and Group III received 2,000 mg/day BUDCA or placebo, 3:1. Study medication or placebo was given in two equal doses daily for 28 days. […]
The groups were enrolled sequentially, but follow-up overlapped (the next cohort could begin during the follow-up period of the prior cohort) (FIG. 1). The decision to move to the next dose level was based upon tolerability and safety findings, as assessed by a Safety Monitoring Committee. […] After having vital signs measured and baseline laboratory tests taken, the subject was given a morning meal and then observed while taking their first dose of BUDCA with a glass of water. […]

[3] = highest dose (2,000 mg per day), day 28

SMILES: COc1ccc2cc3[n+](cc2c1OC)CCc1cc2c(cc1-3)OCO2.C[C@H](CCC(=O)[O-])[C@H]1CC[C@H]2[C@@H]3[C@@H](O)C[C@@H]4C[C@H](O)CC[C@]4(C)[C@H]3CC[C@]12C [BUDCA, berberine ursodeoxycholate]
- HDL-c (serum level) ([1]; 500 mg/day, Day 14, baseline 1.25, P vs. placebo n.s.): 1.22
- TG (serum level) ([1]; 500 mg/day, Day 14, baseline 2.11, P vs. placebo n.s.): 1.89
- LDL-c (serum level) ([1]; 500 mg/day, Day 14, baseline 4.01, P vs. placebo n.s.): 3.87
- Non-HDL-c (serum level) ([1]; 500 mg/day, Day 14, baseline 4.85, P vs. placebo n.s.): 4.75
- TC (serum level) ([1]; 500 mg/day, Day 14, baseline 6.13, P vs. placebo n.s.): 5.96
- HDL-c (serum level) ([1]; 500 mg/day, Day 28, baseline 1.25, P vs. placebo n.s.): 1.17
- TG (serum level) ([1]; 500 mg/day, Day 28, baseline 2.11, P vs. placebo n.s.): 2.27
- LDL-c (serum level) ([1]; 500 mg/day, Day 28, baseline 4.01, P vs. placebo n.s.): 3.72
- Non-HDL-c (serum level) ([1]; 500 mg/day, Day 28, baseline 4.85, P vs. placebo 0.03): 4.71
- TC (serum level) ([1]; 500 mg/day, Day 28, baseline 6.13, P vs. placebo n.s.): 5.88
- HDL-c (serum level) ([1]; 1,000 mg/day, Day 14, baseline 1.32, P vs. placebo n.s.): 1.29
- TG (serum level) ([1]; 1,000 mg/day, Day 14, baseline 1.76, P vs. placebo n.s.): 1.73
- LDL-c (serum level) ([1]; 1,000 mg/day, Day 14, baseline 3.68, P vs. placebo n.s.): 3.42
- Non-HDL-c (serum level) ([1]; 1,000 mg/day, Day 14, baseline 4.48, P vs. placebo n.s.): 4.23
- TC (serum level) ([1]; 1,000 mg/day, Day 14, baseline 5.81, P vs. placebo n.s.): 5.51
- HDL-c (serum level) ([1]; 1,000 mg/day, Day 28, baseline 1.32, P vs. placebo n.s.): 1.23
- TG (serum level) ([1]; 1,000 mg/day, Day 28, baseline 1.76, P vs. placebo 0.028): 1.86
- LDL-c (serum level) ([1]; 1,000 mg/day, Day 28, baseline 3.68, P vs. placebo n.s.): 3.51
- Non-HDL-c (serum level) ([1]; 1,000 mg/day, Day 28, baseline 4.48, P vs. placebo 0.025): 4.31
- TC (serum level) ([1]; 1,000 mg/day, Day 28, baseline 5.81, P vs. placebo n.s.): 5.54
- HDL-c (serum level) ([1]; 2,000 mg/day, Day 14, baseline 1.24, P vs. placebo n.s.): 1.33
- TG (serum level) ([1]; 2,000 mg/day, Day 14, baseline 1.60, P vs. placebo n.s.): 1.42
- LDL-c (serum level) ([1]; 2,000 mg/day, Day 14, baseline 3.85, P vs. placebo 0.0093): 3.40
- Non-HDL-c (serum level) ([1]; 2,000 mg/day, Day 14, baseline 4.62, P vs. placebo 0.0018): 4.04
- TC (serum level) ([1]; 2,000 mg/day, Day 14, baseline 5.91, P vs. placebo 0.01): 5.37
- HDL-c (serum level) ([1]; 2,000 mg/day, Day 28, baseline 1.24, P vs. placebo n.s.): 1.29
- TG (serum level) ([1]; 2,000 mg/day, Day 28, baseline 1.60, P vs. placebo 0.0018): 1.54
- LDL-c (serum level) ([1]; 2,000 mg/day, Day 28, baseline 3.85, P vs. placebo 0.091): 3.44
- Non-HDL-c (serum level) ([1]; 2,000 mg/day, Day 28, baseline 4.62, P vs. placebo 0.0002): 4.14
- TC (serum level) ([1]; 2,000 mg/day, Day 28, baseline 5.91, P vs. placebo 0.003): 5.42
- ALT level during therapy ([1]; 500-2,000 mg/day, 28 days): did not change significantly
- HbA1C level during therapy ([1]; 500-2,000 mg/day, 28 days): did not change significantly
- serum lipid levels among subjects receiving active therapy ([1]; 500-2,000 mg/day, maximum reductions relative to placebo after 14 days): decreased in a dose-dependent fashion
- change in HDL-c concentration [1, 3]: no significant changes
- change in TG concentration [1, 3]: no significant changes
- reduction in the serum concentration of TC ([1]; highest dose (2,000 mg per day), day 28, P=0.0004): 8.2%
- reduction in the serum concentration of LDL-c ([1]; highest dose (2,000 mg per day), day 28, P=0.0006): 10.4%
- frequency of treatment-related adverse events ([2]; active drug, all doses, placebo 66%): 67%
- tolerability ([2]; up to 2,000 mg per day): generally well tolerated
